Source: US7691594B2, “Anticancer agent” (Fujifilm Corporation, priority 2006, dated 2010)

Legend:
[1] = test system: messenger RNA of PCDH20 gene in LU65 cells; assay: RT-PCR of PCDH20 gene messenger RNA expression after inhibitor treatment, LU65 cells; assay type: cell-based, human
Procedure: (§1) Specifically, the results were obtained by adding either 5-aza-deoxycytidine (5-aza-dCyd) serving as a DNA methyltransferase inhibitor to each cell type at concentrations of 5 or 10 μM for 5 days and/or trichostatin A (TSA) serving as a non-specific inhibitory substance for histone deacetylase to each cell type at concentrations of […] or […] for 12 hours before cell harvest during culture, and then carrying out RT-PCR, followed by comparison of the expression levels of PCDH20 gene messenger RNA via electrophoresis. The expression level of GAPDH was used as a control in RT-PCR.
(§2) Cell lines used herein were squamous cell lines EBC-1, LK-2, PC10, VMRC-LCP, LC-1sq, and ACC-LC-73; adenocarcinoma cell lines 11-18, A549, ABC-1, RERF-LC-OK, VMRC-LCD, SK-LC-3, and RERF-LC-KJ; and large cell carcinoma cell lines KNS-62, 86-2, LU65, PC-13, ACC-LC-33, NCI-H460, and LU99A. As lung cancer samples derived from clinical specimens, paraffin-embedded samples derived from 53 types of adenocarcinoma and rapidly-frozen samples derived from 59 types of adjacent normal site were used. Cancer samples derived from clinical specimens were obtained from the National Cancer Center, Hokushin General Hospital of Nagano Prefectural Welfare Federation and used under agreement with each patient and approval of the ethical committee of each organization. […]

[2] = test system: messenger RNA of PCDH20 gene in ABC-1 cells; assay: RT-PCR of PCDH20 gene messenger RNA expression after inhibitor treatment, ABC-1 cells; assay type: cell-based, human
Procedure: as §1, §2

[3] = 5-aza-dCyd 5 μM and 10 μM for 5 days, GAPDH control
[4] = TSA 100 ng/ml for 12 hours before harvest together with 5-aza-dCyd

| Compound | expression level of messenger RNA of PCDH20 gene (RT-PCR) [1, 3] | expression level of messenger RNA of PCDH20 gene (RT-PCR) [2, 3] | expression level of messenger RNA of PCDH20 gene (RT-PCR), combination [1, 4] | expression level of messenger RNA of PCDH20 gene (RT-PCR), combination [2, 4] |
| --- | --- | --- | --- | --- |
| Nc1ncn([C@H]2C[C@H](O)[C@@H](CO)O2)c(=O)n1 [5-aza-deoxycytidine] | transcription suppression was canceled | transcription suppression was canceled | – | – |
| CC(/C=C/C(=O)NO)=C\[C@@H](C)C(=O)c1ccc(N(C)C)cc1 [trichostatin A] | – | – | elevated synergistically | elevated synergistically |
